{"source": "patent US9284297B2", "about": "“Halofuginone analogs for inhibition of tRNA synthetases and uses thereof” (President and Fellows of Harvard College, priority 2008, dated 2016)", "tested_on": "TGFβ-induced Smad phosphorylation and lymphocyte responses to TGFβ", "experiment": "TGFβ signaling in T and B cells", "type": "cell-based, murine", "conditions": "low dose HF; 10 μM SB-431542", "protocol": "FIG. 10. […] FIG. 10A is a set of FACS analyses of CD4^+ CD25^− T cells activated in Th1 or Th2 polarizing conditions, either in the presence or absence of TGFβ. DMSO, 10 nM HF, 10 nM MAZ1310, or 10 μM SB-431542 added as indicated at the time of activation. Intracellular cytokine staining was performed on expanded T cells on day 5.\nFIG. 10D depicts western blot analyses of purified CD4^+ CD25^− T cells treated with DMSO, 40 nM MAZ1310, titrating concentrations of HF (2.5-40 nM) or 10 μM SB-431542 for 30 minutes in complete medium supplemented with 0.1% fetal calf serum. T cells were then activated in the presence or absence of 3 ng/ml TGFβ. Whole cell extracts were prepared after 1 hour of stimulation and western blot analyses were performed using the indicated antibodies.\nTh17 differentiation is synergistically regulated by TGFβ and the pro-inflammatory cytokines IL-6 and IL-21. […] Since STAT3 is the major transducer of IL-6 and IL-21 signaling, the kinetics of STAT3 phosphorylation in HF-treated T cells were examined.\nWhole cell lysates were generated from T cells activated for the indicated times. For STAT3 and Smad2/3 western blots cells were harvested, washed in PBS and lysed in 50 mM Tris, pH 7.4, 0.1% SDS, 1% Triton-X100, 140 mM NaCl, 1 mM EDTA, 1 mM EGTA supplemented with protease inhibitors tablets (Roche, Germany), 1 mM NaF and 1 mM Na3VO4. […]"}
{"smiles": "NC(=O)c1ccc(-c2nc(-c3ccc4c(c3)OCO4)c(-c3ccccn3)[nH]2)cc1", "note": "[SB-431542]", "values": [{"measurement": "effect on TGFβ-induced Smad phosphorylation and other lymphocyte responses to TGFβ", "result": "abrogated all responses to TGFβ"}]}
